Assay results published in a melting point compilation (Tetko et al.; mined from patent text by program, amines drawn as free bases though some values may be those of a salt).

| SMILES | melting point |
| --- | --- |
| Cc1cc(-c2noc(C(F)F)n2)cc(C)c1OCCCc1cncs1 | 78 to 80 °C |
| Cc1c(-c2ccccc2)c(C2=CCNC2)c2oc(C3CC3)nc2c1C#N | 172 to 174 °C |
| O=C1NCCN1c1ccc(S(=O)(=O)Nc2ccc(Br)cc2)cc1 | 237 to 239 °C |
| O=C(COCc1cccs1)C12CC3CC(CC(C3)C1)C2 | 57.2 to 58.3 °C |
| COC(=O)COC(=O)COc1ccc(N)cc1 | 76.5 to 78.5 °C |
| CCC1CCCCc2c1oc(=O)c(C(c1ccccc1)C1CC1)c2O (centres undefined) | 63 to 71 °C |
| COc1cccc(C(CNC(=O)Cc2c(Cl)cncc2Cl)CC(C)C)c1 (centres undefined) | 98 to 99 °C |
| C[C@@H]1C[C@H](C)CN(S(=O)(=O)c2ccc(Cl)c(C(=O)NCCCC(=O)O)c2)C1 | 193 to 195 °C |
| CCOC(=O)C(C)(C#N)c1ccc2c(c1)Cc1cccnc1O2 (centres undefined) | 119 to 120 °C |
| CCC(CC)NC1=CC(CC(C(=O)OC)C(=O)OC)(Nc2c(C)cc(C)cc2C)NC(C)=C1 (centres undefined) | 136 to 138 °C |
| CC(C)(C)n1ncc(C(N)=O)c1N | 193 to 195 °C |
| CCOC(=O)c1cn(-c2nc(NCc3ccc(OC)cc3)c(F)cc2F)c2c(F)c(F)c(F)c(F)c2c1=O | 203 to 208 °C |
| COC(=O)C(OC)(OC)C(=O)Nc1cc(Cl)cc(Cl)c1 | 160 to 164 °C |
| COc1ccc(-c2coc3cc(OC)cc(OC)c3c2=O)c(OC)c1 | 202 to 204 °C |
| COc1cc2c(Nc3cc(OC)c(OC)c(OC)c3)c(C#N)cnc2cc1F | 215 to 217 °C |
| Cc1cc([N+](=O)[O-])cc(C)c1Oc1ccc(O)c(C(=O)c2ccc(F)cc2)c1 | 148 to 150 °C |
| CC(C)c1noc2c1C(=O)N(C(C)(C)C)C2=O | 60 to 62 °C |
| COc1cc2c(CCN)c(C)[nH]c2c(Cl)c1Cl | 184 to 186 °C |
| Cc1ccc(OC(=O)N2CC3CC(CN(CC(O)COc4ccc(C#N)cc4)C3)C2)cc1 (centres undefined) | 125 to 126 °C |
| CCCCc1ccc(C(=O)Nc2ccc3cc(CN4CCCC4)cnc3c2C)cc1 | 131 °C |
| OC1CSC(Sc2ccc(C(F)(F)F)cc2)C(O)C1O (centres undefined) | 128 to 130 °C |
| COc1ccc2c(c1)CC(C(=O)O)O2 (racemic) | 98 to 100 °C |

| SMILES | melting point |
| --- | --- |
| O=c1[nH]c2cc(Cl)ccc2c(=O)n1S(=O)(=O)c1ccc([N+](=O)[O-])cc1 | > 250 °C |
| O=C(NCc1ccc(OC(F)(F)F)cc1)Nc1cccc2[nH]ccc12 | 177 °C |
| Cc1cc(C2(C(F)(F)F)CC(c3ccc(S(C)=O)cc3)=NO2)ccc1NC(=O)c1cccc(I)c1C(=O)NC(C)C (centres undefined) | 134 to 152 °C |
| NC(=O)C=Cc1ccc(N)cc1 | 200 °C |
| CCOC(=O)CCc1nnc(-c2ccc3c(c2)CCO3)o1 | 81 to 82 °C |
| O=C(O)C(=NO)c1cccs1 | 132 °C |
| CCOC(=O)c1[nH]c2ccc(C)cc2c1C | 118 °C |
| O=C1c2c(Cl)ccc(Cl)c2C(=O)N1CCN1CCC(c2noc3cc(F)ccc23)CC1 | 163 to 164 °C |
| CCN(C(=O)c1ccc2nonc2c1)C1CCOCC1 | 102 to 104 °C |
| COc1ccc(CN2C(=O)C(C)(c3cc(C(=O)N(C)CC(F)(F)F)ccc3Cl)c3cc(Cl)ccc32)c(OC)c1 (centres undefined) | 89 °C |
| CCCN1CCO[C@@H]2c3cc(C(=O)N(C)C)ccc3CC[C@H]21 (relative stereo) | 85 to 87 °C |
| CN1C(=O)Cn2cc(C(=O)NCc3ccc(Cl)cc3)c(=O)c3cc(CN4CCOCC4)cc1c32 | 213 to 214 °C |
| Cn1cc(C(=O)NCc2ccc(Cl)cc2)c(=O)c2cc(CN3CCCOCC3)ccc21 | 178 to 179 °C |
| C#CCOc1cc(-c2ccc(S(C)(=O)=O)cc2)c(-c2ccc(F)cc2)c(C(F)(F)F)n1 | 138 to 139 °C |
| O=C1CC2CCC(=O)N2c2cc(O)cc(O)c21 (centres undefined) | 254 to 256 °C |
| COc1ccc(C(CCCCCCC(=O)O)=NOCc2ccc(OCc3nc(-c4ccccc4)oc3C)cc2)cc1 | 69 to 70 °C |
| COc1ccc(-n2cc(CCCOc3c(CC(=O)O)cccc3OC)c(C(C)C)n2)nn1 | 124 to 125 °C |
| CCOC(=O)C1=C(COCc2nnn(CCNc3cc(Cl)ncn3)n2)NC(C)=C(C(=O)OC)C1c1cccc(Cl)c1Cl (centres undefined) | 160 to 162 °C |
| Cc1nc(Sc2ccc(C(=O)O)cn2)sc1CC(=O)O | 226 to 228 °C |
| CCOC(=O)c1ncc(Cl)cc1F | 48 to 50 °C |
| CC(C)Oc1cc(/C=C/C(=O)O)n(Cc2ccc(C(F)(F)F)cc2Cl)n1 | 170 to 171 °C |
| CCOC(=O)C=CC(=O)N(CC(C)(C)C)c1sc(Cl)cc1C(=O)c1ccccc1Cl | 79 to 81 °C |

Further lines, results first:

| melting point | SMILES |
| --- | --- |
| 257 to 259 °C | O=C(Nc1ccc(C(=O)N2Cc3ccccc3Cc3ccccc32)cc1)c1c(Cl)cccc1Cl |
| 145 to 147 °C | CC(C)(C)OC(=O)N1[C@@H](Cc2cccc(C3CCC3)c2)C(=O)O[C@H](c2ccccc2)[C@@H]1c1ccccc1 |
| 182 to 184 °C | CCN1CCN(Cc2nc(-c3ccc4c(c3)Nc3ccccc3S4)cs2)CC1 |
| 113 to 115 °C | CCOC(=O)c1cc(S(=O)(=O)N2c3ccccc3-c3ccccc3C2C)ccc1OCC (centres undefined) |
| 256 to 257 °C | CN(C)c1ccc2cc(-c3ccnc(N)c3C#N)ccc2c1 |
| 150 to 151 °C | Cc1oc(-c2ccccc2)nc1COc1cccc(CSc2ccc(CC(=O)O)cc2Cl)c1 |
| 148 to 149 °C | O=S(=O)(NCC(O)(c1ccccc1)c1ccc(OCc2ccccc2)cc1)c1ccccc1 (centres undefined) |
| 92 to 93 °C | N#Cc1ncccc1Oc1cccc(F)c1 |
| 202 to 204 °C | Oc1ncc(-c2ccccc2)s1 |
| > 300 °C | CN1C(=O)C(=C(Nc2ccc(-c3cn(C)cn3)cc2)c2ccc(CN)cc2)c2ccccc21 |
| 85 to 90 °C | COc1cc(O)c(C(=O)c2ccccc2F)c(Cl)c1 |
| 70 to 77 °C | FC(F)(c1ccccc1)C(F)(F)c1ccccc1CBr |
| 152 to 155 °C | CC1c2ccccc2CC(=O)Cc2ccccc21 |
| 221 °C | CC(C)(C)OC(=O)N1CCC(OCc2ccccc2)C1CC(=O)Cn1cnc2cccc(F)c2c1=O (centres undefined) |
| 158 to 160 °C | N#CCCN1c2ccccc2Sc2ccccc21 |
| 120 °C | COc1ccc(Oc2ccc(OCc3ccccc3)cc2[N+](=O)[O-])cc1 |
| 149 to 150 °C | CC(=O)c1cc(-c2ccccc2)c(=O)n2c1-c1sccc1CC2 |
| 214 to 218 °C | Cc1ccccc1CC(=O)Nc1ccc(C(=O)O)c(Cl)c1 |
| 221 to 223 °C | CCOc1ccc(C(=O)Nc2c(Cl)cncc2Cl)c2c3cc(Cl)ccc3n(Cc3ccccc3)c12 |
| 188 to 189 °C | CC(=O)c1cc(NC(=O)c2ccccc2)cc(C(C)=O)c1 |
| 159 to 161 °C | Cc1ccc(CNC(=O)c2ccc3n2Cc2ccccc2N(C(=O)c2ccc(-c4ccccc4C)c(C)c2)C3)c(C)c1 |
| 131 to 134 °C | O=[N+]([O-])c1ccc2c(ccn2Cc2cccnc2)c1 |
| 135 to 136 °C | Cc1oc(-c2ccco2)nc1COc1cccc(COc2nn(Cc3ccccc3)cc2C=O)c1 |
| 159 to 161 °C | C[C@@H](n1ccnc1)C(O)(c1ccc(Cl)cc1)c1ccc(Cl)cc1 |
| 77 to 83 °C | COC(=O)/C(=C/c1cccc(C=O)c1)NC(=O)OCc1ccccc1 |
